Reference: patent US9073864B2, “Aromatic ring compound” (TAKEDA PHARMACEUTICAL COMPANY LIMITED, priority 2012, dated 2015)

Key:
Wistar fatty rat = assay: Hypoglycemic action in Wistar fatty rat (single administration); type: in vivo; details: 10 mg/kg oral, 4 hr after administration, male Wistar fatty rats, change relative to non-administration group
Method: Hypoglycemic Action in Wistar Fatty Rat (Single Administration)
Wistar fatty rats (male, 25- to 26-week-old) were orally administered with a 0.5% methylcellulose suspension containing a test compound (10 mg/kg body weight) (test compound administration group, 4-6 per group) or 0.5% methylcellulose solution (test compound non-administration group, 4-6 per group), blood samples were collected from the rat tail vein 4 hr after the administration, and the hypoglycemic action was evaluated using the blood. The blood glucose was measured using Model 7180 HITACHI automatic analyzer (Hitachi, Ltd.).
In each animal of the test compound administration group and the test compound non-administration group, changes in the blood glucose level from that before administration was calculated, the difference between the “average change of test compound non-administration group” and the “change in each animal of test compound administration group” was calculated as the “change in blood glucose due to test compound”, and the average of each group was taken as the “blood glucose change value (mg/dL)”.

[1] = biological target: T1, human type glucagon receptor (Homo sapiens, UniProt P47871); assay: Measurement of glucagon binding inhibitory activity ([125I]-glucagon, receptor membrane protein); details: test compound 10 μM; 0.4% DMSO alone = 0%, unlabeled glucagon 1 μM = 100%; read-out: inhibitory rate (%) at 10 μM
T1 construct: an about 1.4 kb DNA fragment containing glucagon receptor gene was recovered from the gel; expressed in transfected cells; host or cells: FreeStyle CHO cells (transient expression); membrane fraction prepared by homogenisation and ultracentrifugation
Method: The glucagon binding inhibitory action of the compound of the present invention was evaluated by the following method.
(1) Cloning of Human Glucagon Receptor Gene
Human glucagon receptor gene was cloned by PCR reaction using human pancreas Marathon-ready cDNA (Clontech Laboratories, Inc.) as a template and the following primer set.
The PCR reaction was performed using Advantage 2 polymerase (Clontech Laboratories, Inc.) and according to the attached protocol. The obtained PCR product was subjected to agarose gel (1%) electrophoresis, an about 1.4 kb DNA fragment containing glucagon receptor gene was recovered from the gel, and digested with restriction enzymes EcoRI and NotI. The restriction enzyme-treated DNA was subjected to agarose gel (1%) electrophoresis, an about 1.4 kb DNA fragment was recovered and ligated with plasmid pMSRaneo digested with restriction enzymes EcoRI and NotI to give human type glucagon receptor expression plasmid DNA “pMSRaneo/hGCGR”. The base sequence of the inserted fragment was confirmed to be identical with the object sequence.
(2) Preparation of Glucagon Receptor Membrane Protein
Human type glucagon receptor was expressed using FreeStyle CHO Expression System (Invitrogen™). According to the manual attached to the FreeStyle CHO Expression System, and using the human type glucagon receptor expression plasmid DNA “pMSRaneo/hGCGR” produced in the above-mentioned (1), transient expression was performed by FreeStyle CHO cells. The above-mentioned DNA was transfected, and shaking culture was performed at 37° C., 8% CO2, 125 rpm for 2 days. The culture medium was centrifuged at 2,000 rpm for 10 min and the cells were recovered. The recovered cells were washed with PBS, suspended in homogenate buffer [10 mM NaHCO3 (pH 7.4), 1 mM EDTA, complete EDTA-free (Roche, Ltd., 1 tablet/50 ml)], and the cells were disrupted by a Polytron cell disruption apparatus (Kinematica AG). The disruption solution was centrifuged at 2,000 rpm for 10 min, and the supernatant was recovered. The supernatant was centrifuged at 35,000 rpm for 60 min, and the precipitate was suspended in a buffer [20 mM Tris-HCl (pH 7.4), 5 mM EDTA, complete EDTA-free (Roche, Ltd., 1 tablet/50 ml)] to give a glucagon receptor membrane protein.
(3) Measurement of Glucagon Binding Inhibitory Activity
The reaction was started by adding 50 μl of a glucagon receptor membrane protein solution diluted with a reaction buffer [50 mM HEPES (pH 7.4), 5 mM EGTA, 5 mM magnesium chloride, 0.1% BSA, 0.005% Tween20] to 100 μg/ml, 25 μl of a test compound solution containing 0.4% DMSO, which solution was prepared with the reaction buffer to a compound concentration of 40 μM, and 25 μl of radiolabeled glucagon ([^125I]-Receptor Grade Glucagon; Perkin Elmer Inc.) diluted with the reaction buffer to 200 pM to each well of a 96 well plate (Corning Incorporated). The plate was stood at room temperature for 90 min, then the reaction solution was transferred from the reaction plate onto a 96 well unifilter GF/C plate (Perkin Elmer Inc.) by a cell harvester (Perkin Elmer Inc.), and suctioned to collect a membrane fraction on the filter. The filter was immersed in a 0.3% polyethyleneimine solution in advance to prevent non-specific adsorption of the labeled ligand. The filter was washed 4 times with the reaction buffer, and dried at 42° C. for 2 hr. To each well was added 25 μl of scintillator (MicroScint0; Perkin Elmer Inc.), and the amount of fluorescence was measured by a microplate scintillation counter (TopCount NXT™; Perkin Elmer Inc.).
The inhibitory rate (%) of the well added with the test compound (10 μM; containing 0.4% DMSO solution) was calculated wherein the reaction rate of the well added with 0.4% DMSO alone was 0% inhibitory rate and that of the well added with unlabeled glucagon (final concentration 1 μM) was 100% inhibitory rate.

[2] = tested on: streptozotocin (STZ)-induced type 1 diabetes model rat; assay: Suppressive action on hyperglycemia after eating in STZ-induced type 1 diabetes model rat bred with time-limited feeding; type: in vivo; details: 10 mg/kg p.o. q.d., detemir 10 U/kg s.c., n=8; for average plasma glucose concentration, 1 hr: 1 hr after administration and start of feeding; for average plasma glucose concentration, 2 hr: 2 hr after administration (immediately before end of feeding); for average plasma glucose concentration, value before administration: next day of 3 days repeated compound administration, immediately before feeding and dosing
Method: Suppressive Action on Hyperglycemia after Eating in Streptozotocin (STZ)-Induced Type 1 Diabetes Model Rat Bred with Time-Limited Feeding
Type 1 diabetes model STZ rat was generated by intravenously administering streptozotocin (STZ: Wako Pure Chemical Industries, Ltd., 65 mg/kg) after overnight fasting. From 1 week after the STZ treatment, time-limited feeding (feeding twice per day for 2 hours each time at 9:00-11:00 am and 16:00-18:00 pm) was started. On day 6 of breeding with time-limited feeding, blood samples were collected immediately before feeding in the morning and after 2 hours of feeding (immediately before end of feeding), and the rats were divided into two groups of detemir (long-acting insulin preparation) treatment group and detemir non-treatment group, with an increase in the plasma glucose concentration associated with the feed intake as an index. In the detemir treatment group, repeated subcutaneous administration of detemir (10 U/kg body weight, Novo Nordisk Pharma Ltd., once per day) was started after the end of feeding in the afternoon, and continued for 7 days until one day before evaluation of the influence of compound administration. Similarly, the detemir non-treatment group was subcutaneously administered repeatedly with saline for 7 days.
The day after repeated administration of detemir for 3 days, blood samples were collected in the same manner as above, and the animals in the detemir treatment group were divided into 3 groups based on an increase in the plasma glucose concentration associated with the feed intake. Each group was orally administered repeatedly with a 0.5% methylcellulose (MC) suspension containing the compound of Example 3 or 21 (10 mg/kg, q.d.) (8 per each group), or 0.5% methylcellulose solution (compound non-administration group, 8) for 4 days before feeding in the morning, starting from the next day of repeated administration of detemir for 4 days.
The next day of repeated administration of detemir for 7 days (the next day of repeated administration of compound for 3 days), blood samples were collected immediately before the start of feeding (and each compound administration) in the morning to obtain values before administration. Also, blood samples were collected after 1 and 2 hours of the administration (immediately before end of feeding), and an influence of compound administration on the profile of plasma glucose concentration after feed intake was evaluated.
Throughout the test, blood samples were collected from the tail vein, and the plasma glucose concentration was measured using Model 7180 HITACHI automatic analyzer.

T1 sequence (P47871 26-477): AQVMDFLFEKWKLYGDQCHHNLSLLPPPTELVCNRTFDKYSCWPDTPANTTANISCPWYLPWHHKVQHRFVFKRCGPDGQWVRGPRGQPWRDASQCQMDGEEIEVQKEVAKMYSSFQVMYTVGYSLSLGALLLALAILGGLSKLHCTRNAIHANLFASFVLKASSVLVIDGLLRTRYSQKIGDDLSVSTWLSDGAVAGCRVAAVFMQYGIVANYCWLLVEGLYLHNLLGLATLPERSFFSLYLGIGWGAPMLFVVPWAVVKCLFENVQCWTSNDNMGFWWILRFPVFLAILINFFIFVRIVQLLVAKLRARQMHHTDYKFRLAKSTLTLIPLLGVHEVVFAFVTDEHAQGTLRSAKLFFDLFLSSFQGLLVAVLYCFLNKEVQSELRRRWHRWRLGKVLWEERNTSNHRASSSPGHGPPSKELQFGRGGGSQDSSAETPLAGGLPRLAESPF

| SMILES | blood glucose change value (Wistar fatty rat) [mg/dL] | inhibition at 10 µM [1] [%] | average plasma glucose concentration, 1 hr [2] [mg/dL] | average plasma glucose concentration, 2 hr [2] [mg/dL] | average plasma glucose concentration, value before administration [2] [mg/dL] |
| --- | --- | --- | --- | --- | --- |
| Cc1cc(-c2ccc(C(F)(F)F)cn2)ccc1C(CCC(F)(F)F)Nc1ccc(C(=O)N2CCC[C@@H](C(=O)O)C2)cc1 (stereo partly drawn) [Example 1, (3R)-1-(4-((4,4,4-trifluoro-1-(2-methyl-4-(5-(trifluoromethyl)pyridin-2-yl)phenyl)butyl)amino)benzoyl)piperidine-3-carboxylic acid] | -162.9 | 84 |  |  |  |
| CCc1cnc(-c2ccc(C(CCC(F)(F)F)Nc3ccc(C(=O)N4CCC[C@@H](C(=O)O)C4)cc3)c(C)c2)nc1 (stereo partly drawn) [Example 4, (3R)-1-(4-((1-(4-(5-ethylpyrimidin-2-yl)-2-methylphenyl)-4,4,4-trifluorobutyl)amino)benzoyl)piperidine-3-carboxylic acid] | -130.4 | 95 |  |  |  |
| Cc1cc(-c2ncc(Cl)cn2)ccc1C(CCC(F)(F)F)Nc1ccc(C(=O)N2CCC[C@@H](C(=O)O)C2)cc1 (stereo partly drawn) [Example 2, (3R)-1-(4-((1-(4-(5-chloropyrimidin-2-yl)-2-methylphenyl)-4,4,4-trifluorobutyl)amino)benzoyl)piperidine-3-carboxylic acid] | -149.8 | 92 |  |  |  |
| Cc1cc(-c2ncc(C(F)(F)F)cn2)ccc1C(CCC(F)(F)F)Nc1ccc(C(=O)N2CCC[C@@H](C(=O)O)C2)cc1 (stereo partly drawn) [Example 3, (3R)-1-(4-((4,4,4-trifluoro-1-(2-methyl-4-(5-(trifluoromethyl)pyrimidin-2-yl)phenyl)butyl)amino)benzoyl)piperidine-3-carboxylic acid] | -142.5 | 91 | 463.6 | 555.2 | 397.0 |
| Cc1cc(-n2ccc(C(C)C)n2)ccc1C(CCC(F)(F)F)Nc1ccc(C(=O)N2CCC[C@@H](C(=O)O)C2)cc1 (stereo partly drawn) [Example 22, (3R)-1-(4-((4,4,4-trifluoro-1-(4-(3-isopropyl-1H-pyrazol-1-yl)-2-methylphenyl)butyl)amino)benzoyl)piperidine-3-carboxylic acid] |  | 89 |  |  |  |
| Cc1cc(-n2cc3c(n2)CCCC3)ccc1C(CCC(F)(F)F)Nc1ccc(C(=O)N2CCC[C@@H](C(=O)O)C2)cc1 (stereo partly drawn) [Example 21, (3R)-1-(4-((4,4,4-trifluoro-1-(2-methyl-4-(4,5,6,7-tetrahydro-2H-indazol-2-yl)phenyl)butyl)amino)benzoyl)piperidine-3-carboxylic acid] | -136.0 | 90 | 471.1 | 552.0 | 435.6 |
| Cc1cc(-c2ccc(Cl)cc2)ccc1C(CCC(F)(F)F)Nc1ccc(C(=O)N2CCC[C@@H](C(=O)O)C2)cn1 (stereo partly drawn) [Example 15, (3R)-1-((6-((1-(4′-chloro-3-methylbiphenyl-4-yl)-4,4,4-trifluorobutyl)amino)pyridin-3-yl)carbonyl)piperidine-3-carboxylic acid] |  | 92 |  |  |  |
| Cc1cc(-c2ccc(C(F)(F)F)cn2)ccc1C(Nc1ccc(C(=O)N2CCC[C@@H](C(=O)O)C2)cc1)C(C)C (stereo partly drawn) [Example 26, (3R)-1-(4-((2-methyl-1-(2-methyl-4-(5-(trifluoromethyl)pyridin-2-yl)phenyl)propyl)amino)benzoyl)piperidine-3-carboxylic acid] |  | 88 |  |  |  |
| Cc1cc(-c2ccc(C(F)(F)F)nc2)ccc1C(CCC(F)(F)F)Nc1ccc(C(=O)N2CCC[C@@H](C(=O)O)C2)cc1 (stereo partly drawn) [Example 14, (3R)-1-(4-((4,4,4-trifluoro-1-(2-methyl-4-(6-(trifluoromethyl)pyridin-3-yl)phenyl)butyl)amino)benzoyl)piperidine-3-carboxylic acid] |  | 88 |  |  |  |
| Cc1cc(-c2ncc(Cl)cn2)ccc1C(CCC(F)(F)F)Nc1ccc(C(=O)N2CCC[C@@H](C(=O)O)C2)cc1 (mixture of isomers) [Example 12, (3R)-1-(4-((1-(4-(5-chloropyrimidin-2-yl)-2-methylphenyl)-4,4,4-trifluorobutyl)amino)benzoyl)piperidine-3-carboxylic acid] |  | 96 |  |  |  |
